{"source": "patent US20200397798A1", "about": "“COMBINATION THERAPIES WITH FARNESOID X RECEPTOR (FXR) MODULATORS” (Akarna Therapeutics, Ltd., priority 2016, published 2020)", "origin": "cited, not measured here", "key": {"[1]": {"tested_on": "C57BL/6 mice fed an MCD diet"}, "[2]": {"tested_on": "patients with biopsy-proven NASH", "conditions": "OCA arm, 25 mg orally daily"}, "[3]": {"tested_on": "CGD-susceptible C57L mice", "conditions": "lithogenic diet supplemented with GW4064, 1 week"}, "ob/ob and db/db mice": {"tested_on": "ob/ob and db/db mice", "conditions": "mouse, in vivo"}, "mice": {"tested_on": "mice", "conditions": "in vivo"}, "[4]": {"tested_on": "plasma triglyceride levels", "conditions": "human, in vivo"}, "KK-A(y) mice": {"tested_on": "KK-A(y) mice", "conditions": "mouse, in vivo"}, "[5]": {"tested_on": "DSS- and TNBS-induced intestinal inflammation", "conditions": "wild type, but not Fxr−/− mice"}}, "note": "Entries after “also recorded” stand apart in the source; their conditions may differ."}
{"compound": "CC(C)OC(=O)C1=CN(C(=O)c2ccc(F)c(F)c2)CC(C)(C)c2c1[nH]c1ccccc21", "note": "[WAY-362450]", "values": [{"measurement": "elevations of serum ALT and AST induced by the MCD diet", "setting": "[1]; 4 weeks treatment", "value": "markedly reduced"}, {"measurement": "hepatoprotective effects in FXR−/− mice", "setting": "[1]; FXR−/− mice fed an MCD diet", "value": "abolished"}]}
{"compound": "CC[C@H]1[C@@H](O)[C@@H]2[C@H](CC[C@]3(C)[C@@H]([C@H](C)CCC(=O)O)CC[C@@H]23)[C@@]2(C)CC[C@@H](O)C[C@@H]12", "note": "[OCA, obeticholic acid]", "values": [{"measurement": "change in HDL, total cholesterol and LDL compared to placebo", "setting": "[2]", "value": "decrease in the high-density lipoprotein (HDL) and an increase in the total cholesterol and low-density lipoprotein (LDL)"}]}
{"compound": "CC(C)c1onc(-c2c(Cl)cccc2Cl)c1COc1ccc(/C=C/c2cccc(C(=O)O)c2)c(Cl)c1", "note": "[GW4064]", "values": [{"measurement": "CGD onset", "setting": "[3]", "value": "prevented CGD onset"}, {"measurement": "liver steatosis", "setting": "ob/ob and db/db mice", "value": "able to prevent liver steatosis"}, {"measurement": "Cl− secretory responses to Ca2+ and cAMP-dependent agonists", "setting": "T84 cells", "value": "attenuated"}, {"measurement": "nuclear translocation of the receptor (FXR)", "setting": "T84 cells", "value": "induced nuclear translocation"}, {"measurement": "ovalbumin-induced diarrhea and cholera toxin-induced intestinal fluid accumulation", "setting": "mice", "value": "reduced"}]}
{"compound": "C[C@H](CCC(=O)O)[C@H]1CC[C@H]2[C@@H]3[C@H](O)C[C@@H]4C[C@H](O)CC[C@]4(C)[C@H]3CC[C@]12C", "note": "[CDCA, chenodeoxycholic acid]", "values": [{"measurement": "plasma triglyceride levels", "setting": "[4]", "value": "decreased circulating TG levels; also recorded: reduces plasma triglyceride levels"}]}
{"compound": "C[C@H](CCC(=O)O)[C@H]1CC[C@H]2[C@@H]3[C@H](O)C[C@@H]4C[C@H](O)CC[C@]4(C)[C@H]3C[C@H](O)[C@]12C", "note": "[CA]", "values": [{"measurement": "hepatic TG accumulation and VLDL secretion", "setting": "KK-A(y) mice", "value": "prevented"}]}
{"compound": "CC[C@H]1[C@@H](O)[C@@H]2[C@H](CC[C@]3(C)[C@@H]([C@H](C)CCC(=O)O)CC[C@@H]23)[C@@]2(C)CC[C@@H](O)C[C@@H]12", "note": "[Compound 6-ECDCA]", "values": [{"measurement": "expression of proinflammatory cytokines, chemokines and their receptors", "setting": "[5]", "value": "repressed"}]}
